According to patent US7253159B2, “Methods and compositions for immunomodulation using CD1 antigens” (The Brigham and Women's Hospital, Inc., priority 2003, dated 2007):

Columns and labels:
[1] = system: CD1a-restricted T cell lines (J.RT-3/CD8-2 cells); type: cell-based; conditions: FIG. 7, comparison between homologs
[2] = Iron-bound or unbound form detected by mass spectrometry; type: physicochemical; conditions: mass spectrometry: [M+Fe−2H]+ at m/z 923.5 or proton adduct at m/z 838.6
From the text: The newly discovered antigens share some structural homology to mycobactin siderophores but lack two hydroxyl groups present in mycobactins, which confer upon mycobactins their ability to bind iron.

[3] = system: CD1a-restricted T cells; assay: CD1a-restricted T cell activation assay (CD8-2 T cell line); type: cell-based
[4] = system: J.RT-3 T lymphoblastoid cells / CD1a; type: cell-based
[5] = system: polyclonal T cells; assay: Activation of polyclonal T cells; type: cell-based; conditions: test for mitogen effects
[6] = system: CD1b transfectants; type: cell-based; conditions: test for mitogen effects
[7] = system: CD1c transfectants; type: cell-based; conditions: test for mitogen effects

Compound	T cell response (ability to activate T cells) [1]	form detected (iron-bound or unbound) [2]	CD1a-restricted T cell response (recognition by T cells) [3]	calcium flux (activation) ([4]; […], Fura Red and Fluo-4, flow cytometry)	activation (calcium flux) in control settings ([4]; antigen, TCR or CD1a omitted, or cells not subjected to centrifugation (spin))	activation of polyclonal T cells [5]	activation with CD1b transfectants [6]	activation with CD1c transfectants [7]
mycobactin [reference compound]	not recognized	iron-bound form	did not stimulate	–	–	–	–	–
CCCCCCCCCCCCCCCCCC(=O)NCCCCC(NC(=O)C1(C)COC(c2ccccc2O)=N1)C(=O)OC(C)CC(=O)NC1CCCCNC1=O (stereo not drawn) [DDM812]	weaker ability to activate T cells	–	–	–	–	–	–	–
CCCCCCCCCCCCCCC/C=C\C(=O)NCCCCC(NC(=O)C1(C)COC(c2ccccc2O)=N1)C(=O)OC(C)CC(=O)NC1CCCCNC1=O (stereo not drawn) [DDM838, didehydroxymycobactin]	most potent	unbound form	–	Strong calcium flux	No activation	not above to activate	not above to activate	not above to activate
CCCCCCCCCCCCCCCCCCCC(=O)NCCCCC(NC(=O)C1(C)COC(c2ccccc2O)=N1)C(=O)OC(C)CC(=O)NC1CCCCNC1=O (stereo not drawn) [DDM840]	weaker ability to activate T cells	–	–	–	–	–	–	–
